Measurements taken from US7635779B2, “Oxy substituted flavones as antihyperglycemic and antidyslipidemic agents” (Council of Scientific & Industrial Research, priority 2004, dated 2009).
Like-named read-outs stand apart in the source and are kept apart here.

Assays:
sucrose loaded rat = test: Sucrose loaded rat model (SLM), antihyperglycemic activity; format: in vivo; settings: for % Fall in blood glucose levels, SLM: 100 mg/kg oral, AUC vs control; for inhibition in vivo at 100 mg/kg: Rattus norvegicus, po, 2 h, read-out: % Fall in blood glucose levels, SLM
Description: Male albino rats of Charles Foster/Wistar strain of average body weight 160±20 g were selected for this study. The blood glucose level of each animal was checked by glucometer using glucostrips (Boehringer Mannheim) after 16 h starvation. Animals showing blood glucose levels between 3.33 to 4.44 mM (60 to 80 mg/dl) were divided into groups of five to six animals in each. Animals of experimental group were administered suspension of the desired synthetic compound orally (made in 1.0% gum acacia) at a dose of 100-mg/kg-body weight. Animals of control group were given an equal amount of 1.0% gum acacia. A sucrose load (10.0 g/kg) was given to each animal orally exactly after 30 min post administration of the test sample/vehicle. Blood glucose profile of each rat was again determined at 30, 60, 90 and 120 min post administration of sucrose by glucometer. Food but not water was withheld from the cages during the course of experimentation. Quantitative glucose tolerance of each animal was calculated by Area Under Curve (AUC) method (Prism Software). Comparing the AUC of experimental and control groups determined the percentage antihyperglycemic activity. Statistical comparison was made by Dunnett's test.

[1] = test system: triton WR-1339 induced hyperlipidemic rats; test: Triton model, antidyslipidemic activity; format: in vivo, rat; settings: 100 mg/kg oral, plasma after 18 h; for inhibition in vivo at 100 mg/kg: Rattus norvegicus
Description: Male Charles foster rats weighing 200-225 g were divided into control, hyperlipidemic and hyperlipidemic plus drug treated groups containing six animals in each group. Hyperlipidemia was induced by administration of triton WR-1339 (200 mg/kg i.p.). All animals were maintained on a special pellet diet and water ad libitum. Compounds and standard drug were macerated with 0.2% aqueous gum acacia suspension. The suspension was fed orally at the dose of 100 mg/kg simultaneously with triton in drug treated group. The animals of control group received the same amount of gum acacia by similar route of administration. At the end of the experiment, after 18 h, blood was withdrawn from retro orbital plexus and plasma was used for the assay of total cholesterol, phospholipid and triglycerides.
Cholesterol was estimated using the kit provided by Roche Diagnostics. Cholesterol esters are enzymatically hydrolyzed by cholesterol esterase (CE) to cholesterol and free fatty acids. Free cholesterol, including that originally present, is then oxidized by cholesterol oxidase (CO) to cholest-4-en-3-one and hydrogen peroxide. The hydrogen peroxide combines with hydroxy benzoic acid (HBA) and 4-aminoantipyrine (4AAA) in the presence of peroxidase (POD) to form a chromophore (quinoneimine dye), which may be quantitated at 500-505 nm. The intensity of red colour formed is directly proportional to the concentration of total cholesterol in the specimen and measured spectrophotometrically (Searcy, C. L. Diagnostic Biochemistry, 1969, McGraw Hill, New York; Ellefson, R. D.; Caraway, W. T. Fundamentals of clinical chemistry, 1976, Ed Tietz N W, 506-515.)
Triglycerides were estimated using the kit provided by Roche Diagnostics. Lipoprotein lipase hydrolyses triglycerides to yield glycerol and fatty acids. Glycerol kinase converts glycerol to glycerol-3-phosphate, which is oxidized by glycerol phosphate oxidase to dihydroxy acetone phosphate and hydrogen peroxide. In the presence of peroxidase, hydrogen peroxide oxidatively couples with 4-aminoantipyrine and 4-chloro phenol to produce red quinonimine dye. The intensity of red colour formed is directly proportional to the concentration of triglycerides in the specimen and is measured by photometrically (Wahlefeld, A. W.; Bergmeyer, H. U. Ed. Methods of enzymatic analysis, 2nd English edition, New York, N.Y., Academic press inc, 1831-1840.).
Serum (0.2 mL) and perchloric acid (1.0 mL) was digested at 180° C. for 1-1.5 h till the solution became colorless. The liberated inorganic phosphate (Pi) was measured by the method of Fiske and Subbarow (Fiske, C. H.; Subbarow, V. J. Biol. Chem. 1925, 66, 375.). 1 mL of 2.5% ammonium molybdate (prepared in 5 N sulphuric acid) and 0.5 mL reducing agent (4-amino naphthol sulphonic acid, 0.2%), sodium metabisulphite (2.4% w/v in distilled water) was added to the above tubes and mixed well. The reaction mixture was […] with 2.5 mL of triple distilled water and kept at 60° C. in water bath for 20 min. For standard, an appropriate amount of potassium dihydrogen phosphate dissolved in triple distilled water containing 2-10 μg phosphorous (Pi) was run simultaneously with the experiment tubes. The optical density of the blue colour was recorded at 620 nm against reagent blank. The values of Pi were converted into phospholipid by multiplying with 25 (a constant calibrated from Pi value of lecithin).

[2] = test system: streptozotocin-induced diabetic rats; test: Sucrose-challenged streptozotocin-induced diabetic rats (STZ-S); format: in vivo, rat; settings: 100 mg/kg oral
Description: Male albino rats of Sprague Dawley strain of body weight 160+20 g were selected for this study. Streptozotocin (Sigma, USA) was dissolved in 100 mM citrate buffer pH 4.5 and calculated amount of the fresh solution was injected to overnight fasted rats (45 mg/kg) intraperitoneally. Blood glucose level was checked 48 h later by glucostrips and animals showing blood glucose values between 144 to 270 mg/dl (8 to 15 mM) were included in the experiment and termed diabetic. The diabetic animals were divided into groups consisting of five to six animals in each group. Animals of experimental groups were administered suspension of the desired test samples orally (made in 1.0% gum acacia) at a dose of 100-mg/kg-body weight. Animals of control group were given an equal amount of 1.0% gum acacia. A sucrose load of 2.5-g/kg body weight was given after 30 minutes of compound administration. After 30 minutes of post sucrose load blood glucose level was again checked by glucostrips at 30, 60, 90, 120, 180, 240, 300 min and at 24 h, respectively. Animals not found diabetic after 24 hours post treatment of the test sample were not considered and omitted from the calculations and termed as non-responders. […] Food but not water was withheld from the cages during the experimentation. Comparing the AUC of experimental and control groups determined the percent antihyperglycemic activity. Statistical comparison between groups was made by Student's ‘t’ test.
As depicted in the FIGURE, a dose response curve of 34 was obtained by administering different doses of test compound to streptozotocin-induced diabetic rats (Table 6). […]

[3] = phospholipid, read-out: % Fall in lipid levels (Triton model) PL
[4] = total cholesterol, read-out: % Fall in lipid levels (Triton model) TC
[5] = triglycerides, read-out: % Fall in lipid levels (Triton model) TG

## CC(C)(C)NCC(O)COc1ccc2c(=O)cc(-c3ccc(OCc4ccccc4)c(OCc4ccccc4)c3)oc2c1 (centres unmarked) [Compound 37, 7-(3-tert-Butylamino-2-hydroxy-propoxy)-3′,4′-dibenzyloxy-flavone]
Sucrose loaded rat
  % Fall in blood glucose levels, SLM: NIL
other
  melting point: 159 to 161 °C
[1]; [3]
  inhibition in vivo at 100 mg/kg: 12%
[1]; [4]
  inhibition in vivo at 100 mg/kg: 23%
[1]; [5]
  inhibition in vivo at 100 mg/kg: 16%

## COc1cc(OC)cc(-c2cc(=O)c3ccc(OCC(O)CNC(C)C)cc3o2)c1 (centres unmarked) [Compound 44, 3′,5′-Dimethoxy-7-[2-hydroxy-3-iso-propylamino-propoxy]-flavone]
Sucrose loaded rat
  inhibition in vivo at 100 mg/kg: 1.36%
other
  melting point: 155 to 156 °C
[1]; [3]
  inhibition in vivo at 100 mg/kg: 21%
[1]; [4]
  inhibition in vivo at 100 mg/kg: 17%
[1]; [5]
  inhibition in vivo at 100 mg/kg: 24%

## CC(C)(C)NCC(O)COc1ccc2c(=O)cc(-c3ccc(O)c(O)c3)oc2c1 (centres unmarked) [Compound 50, 7-(3-tert-Butylamino-2-hydroxy-propoxy)-3′,4′-dihydroxy-flavone]
Sucrose loaded rat
  % Fall in blood glucose levels, SLM: NIL
[1]; [3]
  inhibition in vivo at 100 mg/kg: 23%
[1]; [4]
  inhibition in vivo at 100 mg/kg: 21%
[1]; [5]
  inhibition in vivo at 100 mg/kg: 25%

## O=C1NC(=O)C(=Cc2ccc(OCCOc3ccc4c(=O)cc(-c5ccc(OCc6ccccc6)c(OCc6ccccc6)c5)oc4c3)cc2)S1 [Compound 63, 3′,4′-Dibenzyloxy-7-{2-[4-(thiazolidin-2,4-dione-5-ylidinemethyl)-phenoxy]-ethoxy}-flavone]
Sucrose loaded rat
  % Fall in blood glucose levels, SLM: 26.0%

## COc1cc(OC)cc(-c2cc(=O)c3ccc(OCC(O)CNC(C)(C)C)cc3o2)c1 (centres unmarked) [Compound 43, 7-[3-tert-Butylamino-2-hydroxy-propoxy]-3′,5′-dimethoxy flavone]
Sucrose loaded rat
  % Fall in blood glucose levels, SLM: NIL
other
  melting point: 145 to 146 °C
[1]; [3]
  inhibition in vivo at 100 mg/kg: 19%
[1]; [4]
  inhibition in vivo at 100 mg/kg: 21%
[1]; [5]
  inhibition in vivo at 100 mg/kg: 17%

## COc1ccc(-c2cc(=O)c3ccc(OCCCOc4ccc(C=C5SC(=O)NC5=O)cc4)cc3o2)cc1OC [Compound 67, 3′,4′-Dimethoxy-7-{3-[4-(thiazolidin-2,4-dione-5-ylidinemethyl)-phenoxy]-propoxy}-flavone]
Sucrose loaded rat
  % Fall in blood glucose levels, SLM: 13.60%
[2]
  % Fall in blood glucose levels, STZ-S 5 h: 18.7%
  % Fall in blood glucose levels, STZ-S 24 h: 13.6%
[1]; phospholipid
  % Fall in lipid levels (Triton model) PL: 14%
[1]; total cholesterol
  % Fall in lipid levels (Triton model) TC: 28%
[1]; triglycerides
  % Fall in lipid levels (Triton model) TG: 21%

## CC(C)(C)NCC(O)COc1ccc2oc(-c3ccc(O)c(O)c3)cc(=O)c2c1 (centres unmarked) [Compound 52, 6-(3-tert-Butylamino-2-hydroxy-propoxy)-3′,4′-dihydroxy-flavone]
Sucrose loaded rat
  inhibition in vivo at 100 mg/kg: 4.96%
[1]; [3]
  inhibition in vivo at 100 mg/kg: 23%
[1]; [4]
  inhibition in vivo at 100 mg/kg: 24%
[1]; [5]
  inhibition in vivo at 100 mg/kg: 25%

## CC(C)NCC(O)COc1ccc2c(=O)cc(-c3cc(OCc4ccccc4)cc(OCc4ccccc4)c3)oc2c1 (centres unmarked) [Compound 35, 3′,5′-Dibenzyloxy-7-(2-hydroxy-3-iso-propylamino-propoxy)-flavone]
Sucrose loaded rat
  % Fall in blood glucose levels, SLM: NIL
other
  melting point: 173 to 174 °C
[1]; [3]
  inhibition in vivo at 100 mg/kg: 8%
[1]; [4]
  inhibition in vivo at 100 mg/kg: 13%
[1]; [5]
  inhibition in vivo at 100 mg/kg: 11%

## COc1cc(-c2cc(=O)c3ccc(OCCOc4ccc(C=C5SC(=O)NC5=O)cc4)cc3o2)cc(OC)c1OC [Compound 64, 7-{2-[4-(thiazolidin-2,4-dione-5-ylidinemethyl)-phenoxy]-ethoxy}-3′,4′,5′-trimethoxy-flavone]
Sucrose loaded rat
  % Fall in blood glucose levels, SLM: 9.59%
[1]; phospholipid
  % Fall in lipid levels (Triton model) PL: 25%
[1]; total cholesterol
  % Fall in lipid levels (Triton model) TC: 20%
[1]; triglycerides
  % Fall in lipid levels (Triton model) TG: 26%

## CC(C)NCC(O)COc1ccc2c(=O)cc(-c3ccc(OCc4ccccc4)c(OCc4ccccc4)c3)oc2c1 (centres unmarked) [Compound 38, 3′,4′-Dibenzyloxy-7-(2-hydroxy-3-iso-propylamino-propoxy)-flavone]
Sucrose loaded rat
  % Fall in blood glucose levels, SLM: NIL
other
  melting point: 177 to 179 °C
[1]; [3]
  inhibition in vivo at 100 mg/kg: 5%
[1]; [4]
  inhibition in vivo at 100 mg/kg: 16%
[1]; [5]
  inhibition in vivo at 100 mg/kg: 14%

## COc1cc(OC)cc(-c2cc(=O)c3ccc(OCCCOc4ccc(C=C5SC(=O)NC5=O)cc4)cc3o2)c1 [Compound 66, 3′,5′-Dimethoxy-7-{3-[4-(thiazolidin-2,4-dione-5-ylidinemethyl)-phenoxy]-propoxy}-flavone]
Sucrose loaded rat
  % Fall in blood glucose levels, SLM: 28.80%
[2]
  % Fall in blood glucose levels, STZ-S 5 h: 18.9%
  % Fall in blood glucose levels, STZ-S 24 h: 20.2%

## COc1cc(-c2cc(=O)c3ccc(OCC(O)CN4CCN(c5ccccc5)CC4)cc3o2)cc(OC)c1OC (centres unmarked) [Compound 42, 7-[2-Hydroxy-3-(4-phenylpiperazin-1-yl)-propoxy]-3′,4′,5′-trimethoxy-flavone]
Sucrose loaded rat
  inhibition in vivo at 100 mg/kg: 5.64%
other
  melting point: 170 to 171 °C
[1]; [3]
  inhibition in vivo at 100 mg/kg: 8%
[1]; [4]
  inhibition in vivo at 100 mg/kg: 19%
[1]; [5]
  inhibition in vivo at 100 mg/kg: 23%

## CC(C)NCC(O)COc1ccc2c(=O)cc(-c3ccc(O)c(O)c3)oc2c1 (centres unmarked) [Compound 51, 3′,4′-Dihydroxy-7-(2-hydroxy-3-iso-propylamino-propoxy)-flavone]
Sucrose loaded rat
  % Fall in blood glucose levels, SLM: NIL
[1]; [3]
  inhibition in vivo at 100 mg/kg: 13%
[1]; [4]
  inhibition in vivo at 100 mg/kg: 15%
[1]; [5]
  inhibition in vivo at 100 mg/kg: 19%

## O=C1NC(=O)C(=Cc2ccc(OCCOc3ccc4c(=O)cc(-c5cc(OCc6ccccc6)cc(OCc6ccccc6)c5)oc4c3)cc2)S1 [Compound 62, 3′,5′-Dibenzyloxy-7-{2-[4-(thiazolidin-2,4-dione-5-ylidinemethyl)-phenoxy]-ethoxy}-flavone]
Sucrose loaded rat
  % Fall in blood glucose levels, SLM: NIL
[1]; phospholipid
  % Fall in lipid levels (Triton model) PL: 15%
[1]; total cholesterol
  % Fall in lipid levels (Triton model) TC: 15%
[1]; triglycerides
  % Fall in lipid levels (Triton model) TG: 18%

## COc1ccc(-c2cc(=O)c3ccc(OCC(O)CNC(C)C)cc3o2)cc1OC (centres unmarked) [Compound 46, 3′,4′-Dimethoxy-7-[2-hydroxy-3-iso-propylamino-propoxy]-flavone]
Sucrose loaded rat
  inhibition in vivo at 100 mg/kg: 23.9%
other
  melting point: 144 to 145 °C
